# Measured values reported in PubChem BioAssay AID1918993 (Molecular Pharmacology Branch, DTP, NCI, 2023).
# Tested on: 233499-124-R-J3-PDC complex spheroid growth
# Assay: Anticancer human tumor 233499-124-R-J3-PDC patient-derived colon adenocarcinoma cell line growth inhibition [AhR]
# Settings: for IC50: curve of first compound; for viability, T/C: stronger effect = lower value
# How it was run: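 Agents were dosed in half-log steps down from roughly clinical Cmax, or from 10 microM where Cmax was unknown, alone and with AhR antagonists. Read-out: percent test/control growth of tumor spheroids containing HUVEC and MSC stromal cells.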
# 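Also: spheroids exposed to agents for seven days before reading.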
smiles,measurement,setting,value
CC(C)c1c(-c2ccccc2)nc2c(C#N)c[nH]n2c1=O + Cc1cncc(-c2nc(NCCc3c[nH]c4ccccc34)c3ncn(C(C)C)c3n2)c1,IC50,second compound 0.1 µM,> 10 µM
same,IC50,second compound 0.316 µM,> 10 µM
same,IC50,second compound 1 µM,> 10 µM
same,IC50,second compound 3.16 µM,> 10 µM
same,IC50,second compound 10 µM,< 0.0316 µM
same,"viability, T/C","second compound 0.1 µM, first compound 0.0316 µM",88.8%
same,"viability, T/C","second compound 0.1 µM, first compound 0.1 µM",100%
same,"viability, T/C","second compound 0.1 µM, first compound 0.316 µM",96.5%
same,"viability, T/C","second compound 0.1 µM, first compound 1 µM",108%
same,"viability, T/C","second compound 0.1 µM, first compound 3.16 µM",101%
same,"viability, T/C","second compound 0.1 µM, first compound 10 µM",108%
same,"viability, T/C","second compound 0.316 µM, first compound 0.0316 µM",89.9%
same,"viability, T/C","second compound 0.316 µM, first compound 0.1 µM",88.9%
same,"viability, T/C","second compound 0.316 µM, first compound 0.316 µM",87.4%
same,"viability, T/C","second compound 0.316 µM, first compound 1 µM",86.3%
same,"viability, T/C","second compound 0.316 µM, first compound 3.16 µM",86.2%
same,"viability, T/C","second compound 0.316 µM, first compound 10 µM",85.2%
same,"viability, T/C","second compound 1 µM, first compound 0.0316 µM",84.5%
same,"viability, T/C","second compound 1 µM, first compound 0.1 µM",79.2%
same,"viability, T/C","second compound 1 µM, first compound 0.316 µM",71.5%
same,"viability, T/C","second compound 1 µM, first compound 1 µM",73.8%
same,"viability, T/C","second compound 1 µM, first compound 3.16 µM",79.2%
same,"viability, T/C","second compound 1 µM, first compound 10 µM",84%
same,"viability, T/C","second compound 3.16 µM, first compound 0.0316 µM",72.5%
same,"viability, T/C","second compound 3.16 µM, first compound 0.1 µM",86.5%
same,"viability, T/C","second compound 3.16 µM, first compound 0.316 µM",74.6%
same,"viability, T/C","second compound 3.16 µM, first compound 1 µM",60.9%
same,"viability, T/C","second compound 3.16 µM, first compound 3.16 µM",73.3%
same,"viability, T/C","second compound 3.16 µM, first compound 10 µM",77.2%
same,"viability, T/C","second compound 10 µM, first compound 0.0316 µM",1.69%
same,"viability, T/C","second compound 10 µM, first compound 0.1 µM",2.34%
same,"viability, T/C","second compound 10 µM, first compound 0.316 µM",4.08%
same,"viability, T/C","second compound 10 µM, first compound 1 µM",2.26%
same,"viability, T/C","second compound 10 µM, first compound 3.16 µM",2.36%
same,"viability, T/C","second compound 10 µM, first compound 10 µM",2.85%
